Laboratory results taken from ChEMBL document CHEMBL1687721, “New drugs against tuberculosis: problems, progress, and evaluation of agents in clinical development” (Antimicrob Agents Chemother, 2009).
≈ marks a conversion by molar mass, not a printed value.

Experiments:
[1] = tested on: Mycobacterium tuberculosis; assay: microbe, parasite or virus in culture
Description: Antimicrobial activity against Mycobacterium tuberculosis

[2] = tested on: Mycobacterium tuberculosis; assay: Antimicrobial activity against compound-susceptible Mycobacterium tuberculosis; type: functional
[3] = Half life in human; type: ADME, organism-based; details: in vivo
[4] = Tmax in human; type: ADME, organism-based; details: in vivo
[5] = tested on: Mycobacterium tuberculosis; type: functional
clinical [6] = details: human, plasma, po, 400 mg/kg
Description: Plasma protein binding in healthy human at 400 mg/kg, po

[7] = Oral bioavailability in healthy human at 400 mg/kg, po; type: ADME, organism-based; details: in vivo
[8] = Renal excretion in healthy human at 400 mg/kg, po administered as single dose; type: ADME, organism-based, Kidney; set-up: dose 400 mg/kg, route oral; details: urine, read-out: Activity
clinical [9] = details: human, in vivo, po, 400 mg/kg
Description: Tmax in patients with pulmonary tuberculosis at 400 mg/kg, po

[10] = AUC in healthy human at 400 mg/kg, po; type: ADME, organism-based; set-up: dose 400 mg/kg, route oral; details: plasma
[11] = Drug excretion in feces of healthy human at 800 mg/kg; type: ADME, organism-based; set-up: dose 800 mg/kg; details: faeces, read-out: Activity
[12] = tested on: Mycobacterium tuberculosis; assay: microbe, parasite or virus in culture; remark: listed apart in the source
Description: Antimicrobial activity against rifampicin-sensitive Mycobacterium tuberculosis

[13] = Drug excretion in urine of healthy human at 800 mg/kg; type: ADME, organism-based; set-up: dose 800 mg/kg; details: read-out: Activity
[14] = Drug excretion in urine of healthy human; type: ADME, tissue-based; details: read-out: Activity
[15] = Tmax in healthy human; type: ADME, organism-based; details: in vivo
[16] = Half life in healthy human; type: ADME, organism-based; details: in vivo
[17] = Drug excretion in feces of healthy human; type: ADME; details: faeces, read-out: Activity
Mycobacterium avium = assay: Antimicrobial activity against Mycobacterium avium; type: functional
[18] = Plasma protein binding in healthy human at 10 mg/kg, po; type: ADME, organism-based; set-up: dose 10 mg/kg, route oral; details: read-out: PPB (converted)
[19] = AUC in healthy human at 10 mg/kg, po; type: ADME, organism-based; set-up: dose 10 mg/kg, route oral; details: plasma
[20] = Oral bioavailability in healthy human at 10 mg/kg, po; type: ADME, organism-based; details: in vivo
clinical [21] = details: human, in vivo, po, 10 mg/kg
[22] = Tmax in healthy human at 10 mg/kg, po; type: ADME, organism-based; set-up: dose 10 mg/kg, route oral; details: in vivo
[23] = Cmax in healthy human at 600 mg/kg, po; type: ADME, organism-based; set-up: dose 600 mg/kg, route oral; details: in vivo
[24] = Tmax in healthy human at 600 mg/kg, po; type: ADME, organism-based; set-up: dose 600 mg/kg, route oral; details: in vivo
[25] = Half life in healthy human at 600 mg/kg, po; type: ADME, organism-based; set-up: dose 600 mg/kg, route oral; details: in vivo
[26] = AUC in healthy human at 600 mg/kg, po; type: ADME, organism-based; set-up: dose 600 mg/kg, route oral; details: plasma
[27] = Plasma protein binding in healthy human at 600 mg/kg, po; type: ADME, organism-based; set-up: dose 600 mg/kg, route oral; details: read-out: PPB (converted)
[28] = Ratio of AUC to MIC against Mycobacterium avium; type: functional
[29] = Plasma protein binding in CD2F1 mouse at 0.1 to 2.5 ug/ml by ultracentrifugation; type: ADME, cell-free; details: read-out: PPB (converted)
[30] = Plasma protein binding in Beagle dog at 0.1 to 2.5 ug/ml by ultracentrifugation; type: ADME, cell-free, Canis lupus familiaris; details: read-out: PPB (converted)
[31] = Plasma protein binding in human at 0.1 to 2.5 ug/ml by ultracentrifugation; type: ADME, cell-free; details: read-out: PPB (converted)
[32] = Plasma protein binding in Fischer rat at 0.1 to 2.5 ug/ml by ultracentrifugation; type: ADME, cell-free; details: read-out: PPB (converted)

Cc1c(CN2CCN(c3ccc(C(F)(F)F)cc3)CC2)cc(-c2ccccc2)n1NC(=O)c1ccncc1
MIC90 [1]: 0.25 µg/mL (≈ 0.481 µM)

C[C@]1(COc2ccc(N3CCC(Oc4ccc(OC(F)(F)F)cc4)CC3)cc2)Cn2cc([N+](=O)[O-])nc2O1
MIC [2]: 0.006 µg/mL (≈ 0.0112 µM)

COc1nc2ccc(Br)cc2cc1[C@@H](c1ccccc1)[C@@](O)(CCN(C)C)c1cccc2ccccc12 [BEDAQUILINE]
MIC [2]: 0.03 µg/mL (≈ 0.054 µM) | half-life [3]: 24 h | Tmax [4]: 5 h

CC[C@@H](CO)NCCN[C@@H](CC)CO [ETHAMBUTOL]
Activity [5]: 26%

COc1c(N2CCNC(C)C2)c(F)cc2c(=O)c(C(=O)O)cn(C3CC3)c12 (stereo unspecified) [GATIFLOXACIN]
fraction unbound (clinical [6]): 0.8 | bioavailability [7]: 96% | dose excreted [8]: 77% | Tmax (clinical [9]): 1.5 h

COc1c(N2C[C@@H]3CCCN[C@@H]3C2)c(F)cc2c(=O)c(C(=O)O)cn(C3CC3)c12 [MOXIFLOXACIN]
AUC [10]: 26900 ng·h/mL | dose excreted [11]: 25% | MIC [12]: 0.25 µg/mL (≈ 0.623 µM) | bioavailability [7]: 86% | Activity [5]: 37% | Tmax (clinical [9]): 1 h | dose excreted [13]: 20%

O=[N+]([O-])c1cn2c(n1)OC[C@@H](OCc1ccc(OC(F)(F)F)cc1)C2 [PRETOMANID]
dose excreted [14]: 65% | MIC [2]: 0.015 µg/mL (≈ 0.0418 µM) | Tmax [15]: 4 h | half-life [16]: 18 h | dose excreted [17]: 26%

CO[C@H]1/C=C/O[C@@]2(C)Oc3c(C)c(O)c4c(O)c(c(/C=N/N5CCN(C)CC5)c(O)c4c3C2=O)NC(=O)/C(C)=C\C=C\[C@H](C)[C@H](O)[C@@H](C)[C@@H](O)[C@@H](C)[C@H](OC(C)=O)[C@@H]1C [RIFAMPIN]
MIC [1]: 0.15 µg/mL (≈ 0.182 µM) | MIC (Mycobacterium avium): 0.15 µg/mL (≈ 0.182 µM) | fraction unbound [18]: 0.15 | AUC [19]: 21500 ng·h/mL | bioavailability [20]: 68% | Cmax (clinical [21]): 8000 ng/mL | Tmax [22]: 1.5 h

CO[C@H]1/C=C/O[C@@]2(C)Oc3c(C)c(O)c4c(O)c(c(/C=N/N5CCN(C6CCCC6)CC5)c(O)c4c3C2=O)NC(=O)/C(C)=C\C=C\[C@H](C)[C@H](O)[C@@H](C)[C@@H](O)[C@@H](C)[C@H](OC(C)=O)[C@@H]1C [RIFAPENTINE]
Cmax [23]: 10000 ng/mL | Tmax [24]: 4.8 h | MIC [12]: 0.02 µg/mL (≈ 0.0228 µM) | half-life [25]: 13 h | AUC [26]: 319000 ng·h/mL | fraction unbound [27]: 0.03 | RatioAUC/MIC [28]: 76.6

CC(C)=CCC/C(C)=C/CNCCNC1C2CC3CC(C2)CC1C3 (stereo unspecified) [SQ109]
MIC [2]: 0.16 µg/mL (≈ 0.484 µM) | fraction unbound [29]: 0.94 | fraction unbound [30]: 0.94 | fraction unbound [31]: 0.94 | fraction unbound [32]: 0.94
